Some test systems named below: HOP-62 NSCLC; LOX IMVI melanoma; OVCAR-3 ovarian; HCT-15 colon; HOP-92 NSCLC; M14 melanoma; MOLT-4 leukemia; CAKI-1 renal; EKVX NSCLC; K-562 leukemia.
What all share (assay): NCI tumour cell line growth inhibition, 48 h

The source of these data is PubChem BioAssay (NCI).

Where “and” joins values, the source holds several entries; their conditions need not be identical. Equal values may be shown once.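 Cells were grown in 96-well plates and exposed to each compound for 48 hours at five concentrations; endpoints were interpolated linearly between bracketing concentrations, or set to the highest concentration if not reached. GI50 marks 50% less growth. TGI: concentration producing complete growth inhibition.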

Turning to `CC1=NN(c2cccc(Cl)c2)C2(C1=Cc1ccc(N(C)C)cc1)C(Cl)C(=O)N2c1nc2ccccc2s1` (stereo not drawn), the TGI was above 100 µM in the test on HOP-62 NSCLC; above 100 µM in the test on LOX IMVI melanoma; above 100 µM in the test with OVCAR-3 ovarian; above 100 µM with HCT-15 colon; 64.7 µM in the test on HOP-92 NSCLC; above 100 µM in the test with M14 melanoma. The TGI in the test on MOLT-4 leukemia, in the test on CAKI-1 renal, in the test with EKVX NSCLC and in the test on K-562 leukemia was above 100 µM each time.

For the compound `CCCCCc1cc(CCCC)sc1-c1ccco1`, the TGI in the test with HOP-62 NSCLC, with LOX IMVI melanoma, in the test with OVCAR-3 ovarian, in the test with HCT-15 colon, with HOP-92 NSCLC and with M14 melanoma was above 100 µM each time. The TGI in the test on MOLT-4 leukemia, in the test with CAKI-1 renal, in the test on EKVX NSCLC and in the test with K-562 leukemia was above 100 µM in each case.

With `O=C(O)CCSc1ncnc2nc[nH]c12`, the TGI with HOP-62 NSCLC is above 100 µM; in the test with LOX IMVI melanoma it was above 100 µM; in the test on OVCAR-3 ovarian it was above 100 µM; in the test with HCT-15 colon, above 100 µM; in the test on HOP-92 NSCLC, 96.3 µM; in the test on M14 melanoma, above 100 µM. For the same compound, the TGI in the test on MOLT-4 leukemia, with CAKI-1 renal, with EKVX NSCLC and with K-562 leukemia was above 100 µM throughout.

`CCOC(=O)OC1(c2ccccc2)CCN(C)CC1`: the TGI in the test on HOP-62 NSCLC, in the test with LOX IMVI melanoma, with OVCAR-3 ovarian, with HCT-15 colon, in the test on HOP-92 NSCLC and with M14 melanoma was above 100 µM throughout. Besides, the TGI in the test with MOLT-4 leukemia, in the test with CAKI-1 renal, in the test with EKVX NSCLC and in the test with K-562 leukemia was above 100 µM in each case.

As for `CC1CCc2sc3[nH]c(=S)n(C)c(=O)c3c2C1` (stereo not drawn), the TGI in the test with HOP-62 NSCLC was above 100 µM; in the test with LOX IMVI melanoma, above 100 µM; in the test with OVCAR-3 ovarian it was 62.4 µM; in the test on HCT-15 colon it was above 100 µM; in the test on HOP-92 NSCLC it was 44.5 µM; in the test on M14 melanoma, 99.6 µM. The TGI with MOLT-4 leukemia is above 100 µM; in the test with CAKI-1 renal, above 100 µM; in the test on EKVX NSCLC it was 94.6 µM; in the test on K-562 leukemia it was above 100 µM.

For `O=C(CCl)Nc1ccc(C(=O)N/N=C/c2ccc(Cl)cc2)cc1`, the GI50 in the test with HOP-62 NSCLC is 1.74 µM; in the test on LOX IMVI melanoma, 1.72 µM; in the test with HCT-15 colon, 1.48 µM; with M14 melanoma it was 1.89 µM; in the test on MOLT-4 leukemia, 2.44 µM; in the test with CAKI-1 renal it was 1.87 µM. Moreover, the GI50 in the test on EKVX NSCLC is 20 µM; in the test on K-562 leukemia it was 2 µM. Also, the TGI was 3.45 µM and 14.7 µM in the test on HOP-62 NSCLC; 3.5 µM and 2.91 µM in the test on LOX IMVI melanoma; 3.42 µM and 3.6 µM in the test with OVCAR-3 ovarian; 3.74 µM and 9.73 µM in the test on HCT-15 colon; 4.53 µM with HOP-92 NSCLC; 3.42 µM and 18.3 µM with M14 melanoma. Further, the TGI in the test with MOLT-4 leukemia was 6.28 µM and 5.35 µM; in the test on CAKI-1 renal, 4.39 µM and 3.35 µM; in the test on EKVX NSCLC it was 4.02 µM and 38.5 µM; in the test on K-562 leukemia, 4.04 µM and 7.46 µM.

As to `CCOP(=O)(COCCn1nc(Br)c(=O)[nH]c1=O)OCC`, the TGI with HOP-62 NSCLC, with LOX IMVI melanoma, in the test on OVCAR-3 ovarian, in the test on HCT-15 colon, in the test with HOP-92 NSCLC and in the test with M14 melanoma was above 100 µM each time. Moreover, the TGI with MOLT-4 leukemia, in the test on CAKI-1 renal, in the test with EKVX NSCLC and in the test with K-562 leukemia was above 100 µM in each case.

On to `CCOP(=O)(CC1OC(CO)C(O)C1O)OCC` (stereo not drawn), for which the TGI in the test on HOP-62 NSCLC, in the test with LOX IMVI melanoma, with OVCAR-3 ovarian, in the test on HCT-15 colon, in the test with HOP-92 NSCLC and in the test with M14 melanoma was above 100 µM throughout. Also, the TGI in the test with MOLT-4 leukemia, in the test with CAKI-1 renal, with EKVX NSCLC and with K-562 leukemia was above 100 µM in each case.

`N#Cc1ccnc(C(=O)N2CCCC2C(=O)O)c1` (stereo not drawn): the TGI with HOP-62 NSCLC, in the test with LOX IMVI melanoma, in the test on OVCAR-3 ovarian, in the test on HCT-15 colon, in the test on HOP-92 NSCLC and with M14 melanoma was above 100 µM in each case. Moreover, the TGI in the test on MOLT-4 leukemia, in the test with CAKI-1 renal, with EKVX NSCLC and in the test on K-562 leukemia was above 100 µM in each case.

Regarding `O=C(O)C12C3C4(C(=O)O)C1C1(C(=O)O)C2C3(C(=O)O)C41` (stereo not drawn), the TGI with HOP-62 NSCLC, in the test with LOX IMVI melanoma, in the test with OVCAR-3 ovarian, with HCT-15 colon, in the test with HOP-92 NSCLC and in the test with M14 melanoma was above 100 µM in each case. In addition, the TGI with MOLT-4 leukemia, with CAKI-1 renal, in the test on EKVX NSCLC and in the test with K-562 leukemia was above 100 µM throughout.

Regarding `CC(Br)CN(CC(C)Br)c1ccc2c(c1)Cc1ccccc1-2` (stereo not drawn), the TGI in the test with HOP-62 NSCLC was determined as 23.9 µM; in the test on LOX IMVI melanoma, 23.2 µM; in the test on OVCAR-3 ovarian, 24 µM; in the test on HCT-15 colon, 27.7 µM; in the test with HOP-92 NSCLC it was 20.9 µM; in the test on M14 melanoma, 24.3 µM. For the same compound, the TGI came to 34.6 µM with MOLT-4 leukemia, 21.1 µM in the test on CAKI-1 renal, 30.3 µM in the test on EKVX NSCLC and 33.2 µM in the test on K-562 leukemia.

For `COC(=O)[C@@H]1[C@H]2CC[C@]3(C)[C@@H](OC(C)=O)CC[C@H]3[C@@H]2CC[C@H]1C1(C)SCCS1`, the TGI in the test with HOP-62 NSCLC was 53.6 µM; in the test with LOX IMVI melanoma, 34.6 µM; in the test with OVCAR-3 ovarian, 88.5 µM; in the test on HCT-15 colon it was above 100 µM; with HOP-92 NSCLC, 47.9 µM; in the test on M14 melanoma, 44 µM. Moreover, the TGI was 59.3 µM with MOLT-4 leukemia, above 100 µM in the test with CAKI-1 renal, 74.4 µM with EKVX NSCLC and 94 µM with K-562 leukemia.

On to `COc1cc2c3cc1Oc1cc(ccc1O)C[C@@H]1c4c(cc(OC)c(O)c4Oc4ccc(cc4)C[C@@H]3[N+](C)(C)CC2)CC[N+]1(C)C`, for which the TGI is above 100 µM in the test on HOP-62 NSCLC; 42.5 µM with LOX IMVI melanoma; above 100 µM with OVCAR-3 ovarian; above 100 µM in the test with HCT-15 colon; above 100 µM in the test with HOP-92 NSCLC; 30.4 µM with M14 melanoma. Besides, the TGI with MOLT-4 leukemia, with CAKI-1 renal, in the test with EKVX NSCLC and in the test with K-562 leukemia was above 100 µM throughout.
